{"source": "PubChem BioAssay AID602215", "about": "(Sanford-Burnham Center for Chemical Genomics, 2012)", "note": "The source made the active and inactive calls.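 Rule for the calls: active = IC50 of 20 µM or lower; inactive = the rest.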", "data": [{"system": "HL-1 cardiomyocytes, H2O2 injury, ATP luminescence, 2 h", "experiment": "H2O2-induced HL-1 cell death suppression – ATP luminescence, dose response (AID 602215);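 note: potency is for protection so actives raise ATP signal against peroxide damage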", "values": [{"smiles": "NC(=O)c1nsc(C(=O)N(Cc2ccco2)C(C(=O)NCc2ccccc2)c2ccc(O)cc2)c1N", "note": "(configuration not stated)", "IC50": "45.3 µM (inactive)"}, {"smiles": "CCn1nc(C(=O)Nc2nc(-c3ccccn3)cs2)c2ccccc2c1=O", "IC50": "33 µM (inactive)"}, {"smiles": "Cc1ccc(C)c(NC(=O)C(Sc2nc3ccccc3c(=O)n2CC(C)C)c2ccccc2)c1", "note": "(configuration not stated)", "IC50": "> 79 µM (inactive)"}, {"smiles": "CCOc1cc(-c2cc(-c3ccc(N)cc3)nc(N)c2C#N)ccc1O", "IC50": "> 79 µM (inactive)"}, {"smiles": "CCCn1nc(C(=O)Nc2nc(-c3ccccn3)cs2)c2ccccc2c1=O", "IC50": "7.02 µM"}, {"smiles": "COc1ccc(CCNC(=O)C(=O)NCC2CCCN2S(=O)(=O)c2ccccc2)cc1OC", "note": "(configuration not stated)", "IC50": "> 79 µM (inactive)"}, {"smiles": "COc1ccc(-c2csc(NC(=O)c3ccc(OCC(=O)N4CCOCC4)c(OC)c3)n2)cc1OC", "IC50": "12.3 µM"}, {"smiles": "COc1cc2[nH]c(=O)n3nc(-c4ccccc4)nc3c2cc1OC", "IC50": "> 79 µM (inactive)"}, {"smiles": "COc1ccc(-n2cc(-c3ccccc3)c3c(N4CCOCC4)ncnc32)cc1", "IC50": "> 79 µM (inactive)"}, {"smiles": "CCOc1ccc(C(C(=O)NCC2CCCO2)N(C(=O)c2snc(C(N)=O)c2N)c2ccccc2F)cc1", "note": "(configuration not stated)", "IC50": "10.4 µM"}, {"smiles": "Cc1cccc(NC(=O)c2nc[nH]c2C(=O)NCCCCNC(=O)c2[nH]cnc2C(=O)Nc2cccc(C)c2)c1", "IC50": "> 79 µM (inactive)"}, {"smiles": "CC(OC(=O)c1cc(-c2cccnc2)nc2ccccc12)C(=O)Nc1ccc2ccccc2c1", "note": "(configuration not stated)", "IC50": "> 79 µM (inactive)"}, {"smiles": "COc1cccc(C(=O)Nc2c(C(N)=O)oc3ccccc23)c1", "IC50": "27.6 µM (inactive)"}, {"smiles": "COC(=O)c1cc2c(-c3ccccc3)cc3ccccn3c-2c1C(=O)OC", "IC50": "> 79 µM (inactive)"}, {"smiles": "c1ccc(-c2nc(-n3ccnc3)nc(-n3ccnc3)n2)cc1", "IC50": "> 79 µM (inactive)"}, {"smiles": "O=S(=O)(c1ccccc1)N1CCN(c2nc(-c3cccnc3)nc3ccccc23)CC1", "IC50": "> 79 µM (inactive)"}, {"smiles": "O=C(CCCN1C(=O)c2cccc3cccc(c23)C1=O)N1CCN(c2ccccc2O)CC1", "IC50": "7.51 µM"}, {"smiles": "CC(C)(C)NC(=O)COC(=O)c1c2c(nc3ccccc13)CCC2", "IC50": "49.1 µM (inactive)"}, {"smiles": "COc1cc(NC(=O)c2cc3nc(-c4ccccc4)cc(-c4ccccc4)n3n2)cc(OC)c1OC", "IC50": "8.71 µM"}, {"smiles": "COc1cc(OC)cc(C(=O)Nc2ccc(C(=O)Nc3ccccc3OC)cc2)c1", "IC50": "> 79 µM (inactive)"}, {"smiles": "COc1ccc(-c2cc(C(=O)N(C)Cc3ccc(OC)c(OC)c3OC)c3ccccc3n2)cc1OC", "IC50": "11.6 µM"}, {"smiles": "COc1ccc(CCNc2nc(-c3cccnc3)nc3ccccc23)cc1OC", "IC50": "> 79 µM (inactive)"}, {"smiles": "C[C@H](NC(=O)c1nc[nH]c1C(=O)NCC(=O)OCc1ccccc1)c1ccccc1", "IC50": "> 79 µM (inactive)"}, {"smiles": "COc1ccccc1NC(=O)c1cc(-c2ccc(OC)c(OC)c2)nc2ccccc12", "IC50": "> 79 µM (inactive)"}, {"smiles": "COc1cccc(-c2cnc3c(NC(C)=O)cc(-c4cccc(NS(C)(=O)=O)c4)cn23)c1", "IC50": "6.83 µM"}, {"smiles": "CC(C)(C)OC(=O)C[C@@H]1C/C=C\\C[C@@H](CC(=O)N[C@@H](CO)Cc2ccccc2)C(=O)NC[C@@H](c2ccccc2)OC1=O", "IC50": "> 79 µM (inactive)"}, {"smiles": "Brc1cc2c(cc1/C=N/Nc1nc(N3CCCC3)nc(N3CCOCC3)n1)OCO2", "IC50": "10.9 µM"}, {"smiles": "COc1ccc(NC(=O)c2cc(-c3ccccn3)nc3ccccc23)cc1S(=O)(=O)N(C)C", "IC50": "> 79 µM (inactive)"}, {"smiles": "CCOc1ccc2nc(NC(=O)CN3CCC(n4nnc5cc(F)ccc54)CC3)sc2c1", "IC50": "> 79 µM (inactive)"}, {"smiles": "CCOc1ccc(-n2cc(-c3ccccc3)c3c(N4CCOCC4)ncnc32)cc1", "IC50": "24 µM (inactive)"}, {"smiles": "O=C1OCCN1C(=O)[C@H]1[C@H](c2ccc([N+](=O)[O-])cc2)C(c2ccc(F)cc2)=NN1c1ccc(Br)cc1", "IC50": "> 79 µM (inactive)"}, {"smiles": "COc1ccc(-c2nn(-c3ccccc3)cc2C(=O)Nc2nccs2)cc1", "IC50": "13.7 µM"}, {"smiles": "CCOC(=O)C1CCN(c2cc3c(cc2NC(=O)c2ccccc2Cl)n(C)c(=O)n3C)CC1", "IC50": "> 79 µM (inactive)"}, {"smiles": "N#C/C(=C\\Nc1ccc2c(c1)OCCO2)c1nc2ccccc2[nH]1", "IC50": "> 79 µM (inactive)"}, {"smiles": "CCOC(=O)C(Cc1ccc(NC(=O)/C(=C/c2ccc(OC(C)=O)cc2)NC(C)=O)cc1)N1C(=O)c2ccccc2C1=O", "note": "(configuration not stated)", "IC50": "32.5 µM (inactive)"}, {"smiles": "O=C(Nc1ccccc1)c1nc[nH]c1C(=O)NCCCCCCNC(=O)c1[nH]cnc1C(=O)Nc1ccccc1", "IC50": "3.45 µM"}, {"smiles": "CNC(=O)COC(=O)/C=C/c1cn(-c2ccccc2)nc1-c1ccc(C)o1", "IC50": "37.1 µM (inactive)"}, {"smiles": "CC(=O)c1ccc(-c2cnc3c(NC=O)cc(-c4ccc(C(=O)NC5CC5)cc4)cn23)cc1", "IC50": "> 79 µM (inactive)"}, {"smiles": "CC(=O)c1cccc(Nc2nc3ccccc3n3cnnc23)c1", "IC50": "> 79 µM (inactive)"}, {"smiles": "O=C(c1cc(=O)[nH]c2ccccc12)N1CCN(S(=O)(=O)c2ccc(Cl)cc2)CC1", "IC50": "> 79 µM (inactive)"}, {"smiles": "CCOc1cc(/C=C(\\C#N)C(=O)Nc2ccc(S(N)(=O)=O)cc2)ccc1OCCN1CCOCC1", "IC50": "> 79 µM (inactive)"}, {"smiles": "COc1cccc(-c2cnc3c(NC=O)cc(-c4ccc(O)c(OC)c4)cn23)c1", "IC50": "> 79 µM (inactive)"}, {"smiles": "COc1ccc(-c2csc(NC(=O)c3cccc(N4C(=O)CCC4=O)c3)n2)cc1OC", "IC50": "> 79 µM (inactive)"}, {"smiles": "COc1cc(C(=O)Nc2nc(-c3cccs3)cs2)cc(OC)c1OC", "IC50": "> 79 µM (inactive)"}, {"smiles": "COc1cccc(/C=N/NC(=O)c2oc3nc(-c4ccccc4)cc(-c4ccco4)c3c2N)c1", "IC50": "> 79 µM (inactive)"}, {"smiles": "Fc1ccc(-n2cc(-c3ccccc3)c3c(N4CCOCC4)ncnc32)cc1", "IC50": "> 79 µM (inactive)"}, {"smiles": "O=C(COC(=O)c1ccccc1C(=O)OCC(=O)NCCc1c[nH]c2ccccc12)NCCc1c[nH]c2ccccc12", "IC50": "> 79 µM (inactive)"}, {"smiles": "CC(=O)Nc1ccc(Nc2nc(-c3sc(NC(C)=O)nc3C)cs2)cc1", "IC50": "20.1 µM (inactive)"}, {"smiles": "CCN1C(=O)/C(=C/c2nc3ccccc3c(=O)[nH]2)c2ccccc21", "IC50": "5.41 µM"}, {"smiles": "CC(=O)Nc1cc(-c2ccc(C(=O)NC3CC3)cc2)cn2c(-c3cccc(C(C)=O)c3)cnc12", "IC50": "> 79 µM (inactive)"}, {"smiles": "COc1ccccc1CN(C(=O)CNC(=O)c1ccco1)C(C(=O)NCC1CCCO1)c1ccccc1", "note": "(configuration not stated)", "IC50": "> 79 µM (inactive)"}, {"smiles": "CCOC(=O)c1ccc(NC(=O)c2nc[nH]c2C(=O)NCCCCCNC(=O)OC(C)(C)C)cc1", "IC50": "> 79 µM (inactive)"}, {"smiles": "COc1cc(CN2C[C@@H](CO)O[C@@H](n3cnc4c(Nc5ccccc5)ncnc43)C2)cc(OC)c1OC", "IC50": "20.5 µM (inactive)"}, {"smiles": "C=CCn1cnc2c(c1=O)c1nc3ccccc3nc1n2/N=C/c1cc(OC)c(OC)c(OC)c1", "IC50": "> 79 µM (inactive)"}, {"smiles": "COc1cc(-c2cc(NC(C)=O)c3ncc(-c4ccc(C(C)=O)cc4)n3c2)cc(OC)c1OC", "IC50": "> 79 µM (inactive)"}, {"smiles": "COc1ccc(C(C(=O)NC2CCCC2)N(C(=O)c2snc(C(N)=O)c2N)c2cccc(O)c2)cc1", "note": "(configuration not stated)", "IC50": "23.9 µM (inactive)"}, {"smiles": "COC(=O)c1[nH]c2ccccc2c1NC(=O)CNC1CCCCC1", "IC50": "> 79 µM (inactive)"}, {"smiles": "COc1ccc(OC)c(/C=N/NC(=O)c2cc3c(OC)c(OC)ccc3[nH]2)c1", "IC50": "1.82 µM"}, {"smiles": "COc1ccc(-c2ccc3c(c2)S(=O)(=O)c2cccc(C(=O)N4CCN(c5c(Cl)cncc5Cl)CC4)c2C3=O)cc1OC", "IC50": "> 79 µM (inactive)"}, {"smiles": "O=C(Nc1cccc(NC(=O)c2ccc([N+](=O)[O-])o2)c1)c1ccco1", "IC50": "> 79 µM (inactive)"}, {"smiles": "CC(C)(C)OC(=O)CNC(=O)c1[nH]cnc1C(=O)NCC(=O)OCc1ccccc1", "IC50": "28.2 µM (inactive)"}, {"smiles": "Nc1c(C(=O)N/N=C/c2cccnc2)oc2nc(-c3ccco3)cc(-c3ccco3)c12", "IC50": "> 79 µM (inactive)"}, {"smiles": "Cc1ccc(-n2cc(-c3ccccc3)c3c(N4CCOCC4)ncnc32)cc1", "IC50": "> 79 µM (inactive)"}, {"smiles": "CCOc1ncccc1C(=O)Nc1cccc(-c2nc3cccnc3s2)c1", "IC50": "> 79 µM (inactive)"}, {"smiles": "CC(=O)Nc1ccc(S(=O)(=O)N(Cc2cccnc2)Cc2cc3ccccc3[nH]c2=O)cc1", "IC50": "11.7 µM"}, {"smiles": "CC(=O)c1cccc(-c2cnc3c(NC=O)cc(-c4ccccc4F)cn23)c1", "IC50": "3.28 µM"}, {"smiles": "Cc1ccc(C(C(=O)NCc2ccccc2)N(Cc2ccco2)C(=O)c2snc(C(N)=O)c2N)o1", "note": "(configuration not stated)", "IC50": "> 79 µM (inactive)"}, {"smiles": "O=C(CNC(=O)c1[nH]cnc1C(=O)NC(c1ccccc1)c1ccccc1)OCc1ccccc1", "IC50": "69.7 µM (inactive)"}, {"smiles": "COc1ccc(Nc2nc(C(=O)N3CCc4cc(OC)c(OC)cc4C3)cs2)cc1", "IC50": "8.5 µM"}, {"smiles": "COc1cccc(Nc2nc(-c3sc(NC(=O)c4ccco4)nc3C)cs2)c1", "IC50": "26.4 µM (inactive)"}, {"smiles": "O=C(COC(=O)c1c2c(nc3ccccc13)/C(=C/c1cccc([N+](=O)[O-])c1)CCC2)NC1CCS(=O)(=O)C1", "note": "(configuration not stated)", "IC50": "> 79 µM (inactive)"}, {"smiles": "Cn1c(=O)c2[nH]c(NN=Cc3ccc(Br)cc3)nc2n(C)c1=O", "IC50": "> 79 µM (inactive)"}, {"smiles": "Cc1nn(-c2ccccc2)c(N2CCCC2)c1/C=N/NC(=O)c1cc(-c2ccccn2)nc2ccccc12", "IC50": "> 79 µM (inactive)"}, {"smiles": "CCOc1cc(/C=C/c2ccc3cccc([N+](=O)[O-])c3n2)ccc1OCC(=O)N(C)C", "IC50": "> 79 µM (inactive)"}, {"smiles": "COc1cc(-c2cnc3c(NC=O)cc(-c4cccnc4)cn23)cc(OC)c1OC", "IC50": "16.9 µM"}, {"smiles": "CCOc1ccccc1Nc1nnc(SCc2nnc(-c3cc(OC)c(OC)c(OC)c3)o2)s1", "IC50": "10 µM"}, {"smiles": "COc1ccccc1N1CCN(C(=O)c2ccc3nc(-c4ccco4)c(-c4ccco4)nc3c2)CC1", "IC50": "> 79 µM (inactive)"}, {"smiles": "CC(=O)c1ccc(-c2ccc(C(=O)Nc3nc(-c4ccccn4)cs3)o2)cc1", "IC50": "> 79 µM (inactive)"}, {"smiles": "CCOc1ccc(C(C(=O)NC2CCCC2)N(C(=O)c2snc(C(N)=O)c2N)c2cccc(O)c2)cc1", "note": "(configuration not stated)", "IC50": "4.32 µM"}, {"smiles": "COc1cc(C(=O)N/N=C/c2ccc(OC(=O)c3ccccc3)c(OC)c2)ccc1O", "IC50": "> 79 µM (inactive)"}, {"smiles": "COc1ccc(-c2cc(NC=O)c3ncc(-c4ccc(C(C)=O)cc4)n3c2)cn1", "IC50": "> 79 µM (inactive)"}, {"smiles": "NC(=O)c1nsc(C(=O)N(c2ccccc2)C(C(=O)NCc2ccc(F)cc2)c2ccc(O)cc2)c1N", "note": "(configuration not stated)", "IC50": "> 79 µM (inactive)"}, {"smiles": "NC(=O)c1cc2ccccc2o/c1=N\\NC(=O)c1ccc(F)cc1", "IC50": "3.33 µM"}, {"smiles": "COc1ccc(N(CC(=O)Nc2cccc(C(C)=O)c2)S(=O)(=O)c2ccc(NC(C)=O)cc2)cc1", "IC50": "> 79 µM (inactive)"}, {"smiles": "O=C(c1ccc(-c2nc3ccccc3s2)o1)N1CCN(c2ccccc2O)CC1", "IC50": "> 79 µM (inactive)"}, {"smiles": "Cc1ccc(-c2csc(N3CCC[C@@H]3C(=O)NCCn3c(-c4ccncc4)nc4ccccc43)n2)cc1", "IC50": "> 79 µM (inactive)"}, {"smiles": "COc1ccc(-c2cc(C(=O)Nc3ccccc3N3CCOCC3)c3ccccc3n2)cc1OC", "IC50": "4.35 µM"}]}]}
